Experimental data reported in PMC10743905, “Design, Synthesis, and In Vitro and In Vivo Bioactivity Studies of Hydrazide–Hydrazones of 2,4-Dihydroxybenzoic Acid” (International Journal of Molecular Sciences, 2023).
Converted amounts (≈) assume the structure as drawn.

What was measured:
[1] = test system: Micrococcus luteus ATCC 10240; test: Broth microdilution MIC/MBC; format: cell-based
Excerpt: (§1) In vitro antimicrobial activity assays - Methodology
(§2) The examined compounds 1 - 24 were screened in vitro for antibacterial and antifungal activities using the broth microdilution method according to procedure reported earlier by our research group and European Committee on Antimicrobial Susceptibility Testing (EUCAST) and Clinical and Laboratory Standards Institute (CLSI) guidelines against a panel of reference and clinical or saprophytic strains of microorganisms, in-cluding Gram-positive bacteria, Staphylococcus aureus ATCC 43300 (Methicillin Resistant S. aureus – MRSA), Staphylococcus aureus ATCC 29213 (Methicillin Susceptible S. aureus – MSSA), Staphylococcus epidermidis ATCC 12228, Enterococcus faecalis ATCC 29212, Micro-coccus luteus ATCC 10240, Bacillus subtilis ATCC 6633 and Bacillus cereus ATCC 10876), Gram-negative bacteria (Bordetella bronchiseptica ATCC 4617, Escherichia coli ATCC 25922, Klebsiella pneumoniae ATCC 13883, Proteus mirabilis ATCC 12453, Salmonella typhimurium ATCC 14028 and Pseudomonas aeruginosa ATCC 9027) and fungi belonging to yeasts (Can-dida albicans ATCC 10231, Candida albicans ATCC 2091, Candida parapsilosis ATCC 22019, Candida glabrata ATCC 90030 and Candida krusei ATCC 14243). The microorganisms be-longing to ATCC came from American Type Culture Collection, routinely used for the evaluation of antimicrobials. […]
(§3) Samples containing examined compounds were dissolved in dimethyl sulfoxide (DMSO). […]
(§4) Subsequently, the MIC (Minimal Inhibitory Concentration) of the compounds was ex-amined by the microdilution broth method, using their two-fold dilutions in Mueller- […]
(§5) Hinton broth or (for bacteria) and RPMI 1640 broth with MOPS (for fungi) prepared in 96-well polystyrene plates. Final concentrations of the compounds ranged from 1000 to 0.488 µg/ml. Microbial suspensions were prepared in 0.85% NaCl with an optical density of 0.5 McFarland standard. Next each bacterial or fungal suspension was added per each well containing broth and various concentrations of the examined compounds. After incuba-

[2] = test system: Proteus mirabilis ATCC 12453; test: Broth microdilution MIC/MBC; format: cell-based; conditions: ATCC12453
Excerpt: as §1, §2, §3, §4, §5

[3] = test system: Pseudomonas aeruginosa ATCC 9027; test: Broth microdilution MIC/MBC; format: cell-based; conditions: ATCC9027
Excerpt: as §1, §2, §3, §4, §5

[4] = test system: Salmonella typhimurium ATCC 14028; test: Broth microdilution MIC/MBC; format: cell-based; conditions: Salmonella enterica
Excerpt: as §1, §2, §3, §4, §5

[5] = test system: Staphylococcus aureus ATCC 29213; test: Broth microdilution MIC/MBC; format: cell-based
Excerpt: as §1, §2, §3, §4, §5

[6] = test system: Staphylococcus aureus ATCC 43300; test: Broth microdilution MIC/MBC; format: cell-based; conditions: Staphylococcus aureus ATCC 43300 (MRSA)
Excerpt: as §1, §2, §3, §4, §5

[7] = test system: Staphylococcus epidermidis ATCC 12228; test: Broth microdilution MIC/MBC; format: cell-based
Excerpt: as §1, §2, §3, §4, §5

[8] = test system: Bacillus subtilis ATCC 6633; test: Broth microdilution MIC/MBC; format: cell-based
Excerpt: Detailed procedures are presented in the Supplementary Materials. […]
as §1
as §2, with “antimicrobials. All the used microbial cultures were first subcultured on nu-trient agar or Sabouraud agar at 35°C for 18-24 h or 30°C for 24-48 h for bacteria and fungi,” for “antimicrobials.”
(§6) The surface of Mueller-Hinton agar (for bacteria) and RPMI 1640 with MOPS (for fungi) were inoculated with the suspensions of bacterial or fungal species. Microbial suspensions were prepared in sterile saline with an optical density of McFarland standard scale 0.5.
(§7) Samples containing examined compounds were dissolved in dimethyl sulfoxide (DMSO).
(§8) Furthermore, bacterial and fungal suspensions were put onto Petri dishes with solid me-dia containing 2 mg/mL of the tested compounds followed incubation at 37°C for 24h and 30°C for 48h for bacteria and fungi, respectively. The inhibition of microbial growth was judged by comparison with a control culture prepared without any sample tested. Ciprof-loxacin, vancomycin, nitrofurantoin, cefuroxime, ampicillin or nystatin (Sigma) were used as a reference antibacterial or antifungal compounds, respectively.
as §4, §5

[9] = test system: Bacillus cereus ATCC 10876; test: Broth microdilution MIC/MBC; format: cell-based
Excerpt: as §1
as §2, with “antimicrobials. All the used microbial cultures were first subcultured on nu-trient agar or Sabouraud agar at 35°C for 18-24 h or 30°C for 24-48 h for bacteria and fungi,” for “antimicrobials.”
as §6, §7, §8, §4, §5

[10] = test system: Bordetella bronchiseptica ATCC 4617; test: Broth microdilution MIC/MBC; format: cell-based; conditions: ATCC4617
Excerpt: as §1
as §2, with “antimicrobials. All the used microbial cultures were first subcultured on nu-trient agar or Sabouraud agar at 35°C for 18-24 h or 30°C for 24-48 h for bacteria and fungi,” for “antimicrobials.”
as §6, §7, §8, §4, §5

[11] = test system: Enterococcus faecalis ATCC 29212; test: Broth microdilution MIC/MBC; format: cell-based
Excerpt: as §1
as §2, with “antimicrobials. All the used microbial cultures were first subcultured on nu-trient agar or Sabouraud agar at 35°C for 18-24 h or 30°C for 24-48 h for bacteria and fungi,” for “antimicrobials.”
as §6, §7, §8, §4, §5

[12] = test system: Escherichia coli ATCC 25922; test: Broth microdilution MIC/MBC; format: cell-based; conditions: ATCC25922
Excerpt: as §1
as §2, with “antimicrobials. All the used microbial cultures were first subcultured on nu-trient agar or Sabouraud agar at 35°C for 18-24 h or 30°C for 24-48 h for bacteria and fungi,” for “antimicrobials.”
as §6, §7, §8, §4, §5

[13] = test system: Klebsiella pneumoniae ATCC 13883; test: Broth microdilution MIC/MBC; format: cell-based; conditions: ATCC13883
Excerpt: as §1
as §2, with “antimicrobials. All the used microbial cultures were first subcultured on nu-trient agar or Sabouraud agar at 35°C for 18-24 h or 30°C for 24-48 h for bacteria and fungi,” for “antimicrobials.”
as §6, §7, §8, §4, §5

[14] = test system: Candida albicans ATCC 10231; test: Broth microdilution MIC/MFC; format: cell-based; conditions: ATCC10231, read-out: MIC
Excerpt: as §1
as §2, with “antimicrobials. All the used microbial cultures were first subcultured on nu-trient agar or Sabouraud agar at 35°C for 18-24 h or 30°C for 24-48 h for bacteria and fungi,” for “antimicrobials.”
as §6, §7, §8, §4, §5

[15] = test system: Candida albicans ATCC 2091; test: Broth microdilution MIC/MFC; format: cell-based; conditions: ATCC2091, read-out: MIC
Excerpt: as §1
as §2, with “antimicrobials. All the used microbial cultures were first subcultured on nu-trient agar or Sabouraud agar at 35°C for 18-24 h or 30°C for 24-48 h for bacteria and fungi,” for “antimicrobials.”
as §6, §7, §8, §4, §5

[16] = test system: Candida glabrata ATCC 90030; test: Broth microdilution MIC/MFC; format: cell-based; conditions: Nakaseomyces glabratus, ATCC90030, read-out: MIC
Excerpt: as §1
as §2, with “antimicrobials. All the used microbial cultures were first subcultured on nu-trient agar or Sabouraud agar at 35°C for 18-24 h or 30°C for 24-48 h for bacteria and fungi,” for “antimicrobials.”
as §6, §7, §8, §4, §5

[17] = test system: Candida krusei ATCC 14243; test: Broth microdilution MIC/MFC; format: cell-based; conditions: Pichia kudriavzevii, ATCC14243, read-out: MIC
Excerpt: as §1
as §2, with “antimicrobials. All the used microbial cultures were first subcultured on nu-trient agar or Sabouraud agar at 35°C for 18-24 h or 30°C for 24-48 h for bacteria and fungi,” for “antimicrobials.”
as §6, §7, §8, §4, §5

[18] = test system: Candida parapsilosis ATCC 22019; test: Broth microdilution MIC/MFC; format: cell-based; conditions: Lodderomyces parapsilosis, ATCC22019, read-out: MIC
Excerpt: as §1
as §2, with “antimicrobials. All the used microbial cultures were first subcultured on nu-trient agar or Sabouraud agar at 35°C for 18-24 h or 30°C for 24-48 h for bacteria and fungi,” for “antimicrobials.”
as §6, §7, §8, §4, §5

[19] = test system: reference Gram-positive bacteria; test: Broth microdilution, summary over the Gram-positive panel; format: cell-based; conditions: read-out: MIC
Excerpt: as §1, §2, §3, §4, §5

COc1ccc(/C=N/NC(=O)c2ccc(O)cc2O)cc1Br [Compound 10, N-[(3-bromo-4-methoxyphenyl)methylidene]-2,4-dihydroxybenzohydrazide]
MBC/MIC [1]: > 4
MBC ([1]; ATCC10240): > 1000 µg/mL
MIC ([1]; ATCC10240, read-out: MIC): 250 µg/mL (≈ 685 µM)
MIC [2]: > 1000 µg/mL
MIC [3]: > 1000 µg/mL
MIC [4]: > 1000 µg/mL
MBC/MIC [5]: 16
MBC ([5]; ATCC29213): 250 µg/mL (≈ 685 µM)
MIC ([5]; ATCC29213): 15.6 µg/mL (≈ 42.8 µM)
MBC [6]: 500 µg/mL (≈ 1370 µM)
MBC/MIC [6]: 16
MIC [6]: 31.2 µg/mL (≈ 85.6 µM)
MBC/MIC [7]: > 1
MBC ([7]; ATCC12228): 1000 µg/mL (≈ 2740 µM)
MIC ([7]; ATCC12228, read-out: MIC): 1000 µg/mL (≈ 2740 µM)
MBC/MIC [8]: > 4
MBC ([8]; ATCC6633): > 1000 µg/mL
MIC ([8]; ATCC6633, read-out: MIC): 250 µg/mL (≈ 685 µM)
MBC/MIC [9]: 2
MBC ([9]; ATCC10876): 250 µg/mL (≈ 685 µM)
MIC ([9]; ATCC10876, read-out: MIC): 125 µg/mL (≈ 342 µM)
MIC [10]: > 1000 µg/mL
MBC/MIC [11]: 4
MBC ([11]; ATCC29212, read-out: MBC): 1000 µg/mL (≈ 2740 µM)
MIC ([11]; ATCC29212, read-out: MIC): 250 µg/mL (≈ 685 µM)
MIC [12]: > 1000 µg/mL
MIC [13]: > 1000 µg/mL
MIC [14]: > 1000 µg/mL
MIC [15]: > 1000 µg/mL
MIC [16]: > 1000 µg/mL
MIC [17]: > 1000 µg/mL
MIC [18]: > 1000 µg/mL
MIC [19]: 15.6 to 1000 µg/mL (≈ 42.8 to 2740 µM)
melting point: 260 °C
